pIC50: −log10 of the molar value.
What was measured:
Tyrosinase [1] = biological target: T1, Tyrosinase (Agaricus bisporus, UniProt O42713); test: Inhibition of Agaricus bisporus tyrosinase using L-tyrosine as substrate after 60 mins by spectrophotometric analysis
T1 sequence (O42713 whole entry): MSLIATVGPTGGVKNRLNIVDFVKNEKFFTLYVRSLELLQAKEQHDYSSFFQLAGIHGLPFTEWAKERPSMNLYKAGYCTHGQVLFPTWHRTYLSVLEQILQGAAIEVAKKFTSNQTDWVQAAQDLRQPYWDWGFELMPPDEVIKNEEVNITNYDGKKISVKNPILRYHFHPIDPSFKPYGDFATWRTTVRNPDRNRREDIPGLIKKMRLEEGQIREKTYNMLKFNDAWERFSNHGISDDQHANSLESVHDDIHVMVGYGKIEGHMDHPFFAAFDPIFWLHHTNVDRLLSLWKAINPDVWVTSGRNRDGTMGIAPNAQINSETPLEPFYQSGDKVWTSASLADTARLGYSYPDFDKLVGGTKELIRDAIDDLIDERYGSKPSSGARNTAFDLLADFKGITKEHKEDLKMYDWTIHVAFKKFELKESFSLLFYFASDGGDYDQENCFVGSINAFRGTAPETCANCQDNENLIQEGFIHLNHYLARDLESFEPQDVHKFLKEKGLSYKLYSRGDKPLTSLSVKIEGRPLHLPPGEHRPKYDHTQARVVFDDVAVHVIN

Tyrosinase [2] = biological target: T2, Tyrosinase (Homo sapiens, UniProt P14679)
T2 sequence (P14679 whole entry): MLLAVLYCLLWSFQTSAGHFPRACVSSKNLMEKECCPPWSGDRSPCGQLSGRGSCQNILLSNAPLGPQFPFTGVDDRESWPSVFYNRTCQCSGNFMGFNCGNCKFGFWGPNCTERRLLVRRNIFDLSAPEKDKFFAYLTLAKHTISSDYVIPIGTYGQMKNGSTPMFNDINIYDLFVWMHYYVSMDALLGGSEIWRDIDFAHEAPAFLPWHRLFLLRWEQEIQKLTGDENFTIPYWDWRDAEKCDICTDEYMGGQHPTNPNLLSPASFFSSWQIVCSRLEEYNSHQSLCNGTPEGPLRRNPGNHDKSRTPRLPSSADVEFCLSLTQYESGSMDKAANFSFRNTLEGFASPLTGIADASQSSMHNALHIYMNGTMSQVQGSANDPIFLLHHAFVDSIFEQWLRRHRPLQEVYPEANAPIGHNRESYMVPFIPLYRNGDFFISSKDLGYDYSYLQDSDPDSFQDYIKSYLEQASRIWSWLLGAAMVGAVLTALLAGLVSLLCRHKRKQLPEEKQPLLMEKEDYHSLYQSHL

Tyrosinase [3] = biological target: T2, Tyrosinase; test: Inhibition of tyrosinase (unknown origin) assessed as reduction in monophenolase activity
Tyrosinase [4] = biological target: T2, Tyrosinase; test: Inhibition of tyrosinase (unknown origin) assessed as reduction in diphenolase activity
Tyrosinase [5] = biological target: T3, Tyrosinase (Mus musculus, UniProt P11344); format: cell-based
T3 sequence (P11344 whole entry): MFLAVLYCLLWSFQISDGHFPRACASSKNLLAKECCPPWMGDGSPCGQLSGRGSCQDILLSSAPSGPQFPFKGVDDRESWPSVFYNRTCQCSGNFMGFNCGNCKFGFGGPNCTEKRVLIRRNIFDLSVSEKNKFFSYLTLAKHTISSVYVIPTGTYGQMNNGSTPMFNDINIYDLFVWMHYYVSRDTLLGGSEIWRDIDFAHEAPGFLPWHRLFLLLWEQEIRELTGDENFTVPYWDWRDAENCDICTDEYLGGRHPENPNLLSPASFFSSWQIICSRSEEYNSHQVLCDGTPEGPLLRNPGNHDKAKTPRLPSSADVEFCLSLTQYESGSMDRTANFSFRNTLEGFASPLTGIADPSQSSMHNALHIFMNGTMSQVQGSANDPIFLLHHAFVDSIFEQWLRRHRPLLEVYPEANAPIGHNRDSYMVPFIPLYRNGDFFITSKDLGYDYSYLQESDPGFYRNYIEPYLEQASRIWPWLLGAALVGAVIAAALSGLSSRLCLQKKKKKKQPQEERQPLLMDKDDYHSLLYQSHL
Description: Inhibition of tyrosinase in mouse B16F10 cells assessed as reduction in melanin synthesis after 2 hrs by spectrophotometric analysis

Tyrosinase [6] = biological target: T1, Tyrosinase
Description: Inhibition of mushroom tyrosinase

[7] = biological target: T4, Tyrosinase (Homo sapiens) (UniProt P14679); test: Competitive inhibition of recombinant human tyrosinase expressed in baculovirus infected Sf9 cells using L-DOPA as substrate by double-reciprocal plot analysis
T4 sequence (whole entry): T2 sequence (P14679 whole entry)

Tyrosinase [8] = biological target: T3, Tyrosinase
Description: Inhibition of tyrosinase in mouse B16 cells assessed as reduction in melanin synthesis after 1 hr

[9] = biological target: T5, Tyrosinase (Agaricus bisporus) (UniProt O42713); test: Inhibition of Agaricus bisporus tyrosinase at 1000 uM relative to control
T5 sequence (whole entry): T1 sequence (O42713 whole entry)

Tyrosinase [10] = biological target: T2, Tyrosinase; remark: listed apart in the source
[11] = biological target: T4, Tyrosinase (Homo sapiens); test: Potency index, ratio of kojic acid IC50 to compound IC50 for human tyrosinase
Tyrosinase (Danio rerio) = biological target: T6, Tyrosinase (Danio rerio) (UniProt A0A8M1PAD4); test: Inhibition of tyrosinase in zebrafish assessed as reduction in pigmentation level at 10 uM
T6 sequence (whole entry): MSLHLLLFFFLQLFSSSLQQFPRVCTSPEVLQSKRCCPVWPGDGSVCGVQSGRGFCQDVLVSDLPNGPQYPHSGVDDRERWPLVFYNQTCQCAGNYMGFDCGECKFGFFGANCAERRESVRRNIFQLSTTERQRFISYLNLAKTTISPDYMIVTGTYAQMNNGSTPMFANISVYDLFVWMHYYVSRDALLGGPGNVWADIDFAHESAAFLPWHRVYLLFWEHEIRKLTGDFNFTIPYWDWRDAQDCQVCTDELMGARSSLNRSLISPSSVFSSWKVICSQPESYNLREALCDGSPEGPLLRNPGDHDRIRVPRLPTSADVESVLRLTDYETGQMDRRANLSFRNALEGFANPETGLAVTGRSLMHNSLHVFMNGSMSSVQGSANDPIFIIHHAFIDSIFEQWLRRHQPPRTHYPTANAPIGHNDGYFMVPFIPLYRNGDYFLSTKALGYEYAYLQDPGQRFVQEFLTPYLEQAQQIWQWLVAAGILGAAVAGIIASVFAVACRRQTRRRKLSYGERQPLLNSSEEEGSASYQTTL

[12] = biological target: T4, Tyrosinase (Homo sapiens); test: Inhibition of human tyrosinase at 1 uM using L-tyrosine as substrate after 30 mins by ELISA relative to control
[13] = biological target: T4, Tyrosinase (Homo sapiens); test: Inhibition of tyrosinase in human epidemal melanocytes assessed as reduction in melanin formation at 1 uM; format: cell-based
Tyrosinase [14] = biological target: T3, Tyrosinase; test: Inhibition of tyrosinase in mouse B16 cells; format: cell-based
Tyrosinase [15] = biological target: T1, Tyrosinase; test: Inhibition of Agaricus bisporus tyrosinase using L-tyrosine as substrate after 30 mins by spectrophotometric analysis
Tyrosinase [16] = biological target: T2, Tyrosinase; test: biochemical
Description: Inhibition of recombinant human tyrosinase expressed in baculovirus infected Sf9 cells using L-DOPA as substrate by spectrophotometric analysis

[17] = Cytotoxicity against mouse B16 cells assessed as cell viability at 1000 uM after 48 hrs by MTT assay relative to control; format: cell-based; details: read-out: Activity
Tyrosinase [18] = biological target: T3, Tyrosinase; test: Inhibition of tyrosinase in mouse B16 cells assessed as reduction in alpha-MSH induced melanin synthesis; format: cell-based
[19] = biological target: T7, Tyrosinase (Mus musculus) (UniProt P11344); test: Inhibition of tyrosinase in mouse B16 cells assessed as reduction in alpha-MSH induced melanin synthesis at 30 uM relative to control; format: cell-based
T7 sequence (whole entry): T3 sequence (P11344 whole entry)

Tyrosinase [20] = biological target: T2, Tyrosinase; test: Inhibition of human tyrosinase after 120 mins

## Oc1ccccc1/C=N/c1ccccc1 [2-((PHENYLIMINO)METHYL)PHENOL]
Tyrosinase [1]
  pIC50: 3.60

## Oc1ccc(/C=C/c2cc(O)cc(O)c2)cc1 [RESVERATROL]
Tyrosinase [2]
  pIC50: 3.60

## N[C@@H](Cc1ccccc1)C(=O)N[C@@H](Cc1ccccc1)C(=O)OCc1cc(=O)c(O)c[nH]1
Tyrosinase [3]
  pIC50: 5.05
Tyrosinase [4]
  pIC50: 4.58

## Oc1ccc(-c2nc(-c3ccncc3)c(-c3ccc(F)cc3)[nH]2)cc1 [SB-202190]
Tyrosinase [5]
  pIC50: 7.52

## O=C1/C(=C/c2ccc(=O)n(O)c2)Oc2cc(O)ccc21
Tyrosinase [6]
  pIC50: 5.82
[7]
  Kic: 0.35 µM

## CC(C)=CCc1c(O)ccc(C(=O)/C=C/c2ccc(O)cc2O)c1O [MORACHALCONE A]
Tyrosinase [8]
  pIC50: 5.42
Tyrosinase [2]
  pIC50: 6.09 to 7.10

## Oc1ccc(/C=N/c2ccccc2)cc1
Tyrosinase [1]
  pIC50: 3.84

## O=C1/C(=C/c2ccc(O)cc2)Oc2cc(O)ccc21
Tyrosinase [6]
  pIC50: 4.42

## COc1ccc(NC(=O)/C=C/c2ccc(O)c(O)c2)cc1
[9]
  inhibition: 36.8%

## C[S+]([O-])c1ccc(-c2nc(-c3ccncc3)c(-c3ccc(F)cc3)[nH]2)cc1 (stereo not given) [SB-203580]
Tyrosinase [5]
  pIC50: 7.47

## O=C1/C(=C/c2ccc(O)cc2)Oc2cccc(O)c21
Tyrosinase [6]
  pIC50: 4.50

## CCCCc1ccc(O)cc1O [RUCINOL]
Tyrosinase [10]
  pIC50: 4.68
[11]
  Ratio IC50: 20

## C=C1OC(=O)/C(=C\CCCCCCCCCCCCC)[C@H]1O
Tyrosinase (Danio rerio)
  inhibition: 30%
[12]
  inhibition: 50%
[13]
  inhibition: 40%

## Oc1cc(O)cc(CCc2ccc(O)cc2O)c1
Tyrosinase [14]
  pIC50: 6.52

## OC[C@H]1O[C@@H](Oc2cc(O)cc(/C=C/c3ccc(O[C@@H]4O[C@H](CO)[C@@H](O)[C@H](O)[C@H]4O)cc3O)c2)[C@H](O)[C@@H](O)[C@@H]1O [MULBERROSIDE A]
Tyrosinase [14]
  pIC50: < 4.00

## CCCCCCn1cc(O)c(=O)cc1COC(=O)[C@@H](N)Cc1ccccc1
Tyrosinase [3]
  pIC50: 4.72
Tyrosinase [4]
  pIC50: 4.37

## CC(C)=CCc1c(O)ccc(C[C@@H]2[C@H](c3c(O)ccc(C(=O)/C=C/c4ccc(O)cc4O)c3O)C=C(C)C[C@H]2c2ccc(O)cc2O)c1O
Tyrosinase [2]
  pIC50: 5.34

## C=C(C)C(=O)Cc1c(-c2ccc(O)cc2O)oc2c3c(cc(O)c2c1=O)OC(C)(C)C=C3
Tyrosinase [2]
  pIC50: 3.54

## Oc1cc(O)cc(-c2cc3ccc(O)cc3o2)c1 [MORACIN M]
Tyrosinase [2]
  pIC50: 5.10

## Oc1ccc(/N=C/c2ccc(O)c(O)c2)cc1
Tyrosinase [15]
  pIC50: 4.76

## O=C(N[C@@H](Cc1ccccc1)C(=O)OCc1cc(=O)c(O)c[nH]1)OCc1ccccc1
Tyrosinase [3]
  pIC50: 5.71
Tyrosinase [4]
  pIC50: 5.55

## O=C(/C=C/c1ccc(O)cc1O)c1ccc(O)cc1O
Tyrosinase [8]
  pIC50: 5.30
Tyrosinase [2]
  pIC50: 6.68 to 7.15

## C/C(=C\Cc1c(O)ccc(C(=O)/C=C/c2ccc(O)cc2O)c1O)CO
Tyrosinase [8]
  pIC50: 5.40
Tyrosinase [2]
  pIC50: 6.77

## Cc1ccc(S(=O)(=O)Oc2ccccc2/N=N/c2ccc(O)cc2)cc1
Tyrosinase [15]
  pIC50: 3.70

## Cc1ccc(S(=O)(=O)Oc2ccccc2/N=N/c2ccc(O)cc2O)cc1
Tyrosinase [15]
  pIC50: 4.75

## O=C1/C(=C/c2ccc(=O)n(O)c2)Oc2cc(O)cc(O)c21
Tyrosinase [16]
  pIC50: 4.52

## CCCCCCCCCCCCC/C=C1\C(=O)O[C@@](C)(OC)[C@@H]1O
Tyrosinase (Danio rerio)
  inhibition: 25%
[12]
  inhibition: 50%
[13]
  inhibition: 40%

## CCCCCCCCn1cc(O)c(=O)cc1COC(=O)[C@@H](N)Cc1ccccc1
Tyrosinase [3]
  pIC50: 4.90
Tyrosinase [4]
  pIC50: 4.90

## CC(C)=CCC[C@](C)(O[C@@H]1O[C@H](CO[C@@H]2O[C@H](CO)[C@@H](O)[C@H](O)[C@H]2O)[C@@H](O)[C@H](O)[C@H]1O)[C@H]1CC[C@]2(C)[C@@H]1[C@H](O)C[C@@H]1[C@@]3(C)CC[C@H](O[C@@H]4O[C@H](CO)[C@@H](O)[C@H](O)[C@H]4O[C@@H]4O[C@H](CO)[C@@H](O)[C@H](O)[C@H]4O)C(C)(C)[C@@H]3CC[C@]12C [GINSENOSIDE RB1]
[17]
  viability at 48 h, 1000 µM: 4.67%

## CC(C)=C/C=C1\O[C@@H]2CC(C)=CC(=O)[C@@H]2[C@]1(C)O [BISABOLANGELONE]
Tyrosinase [18]
  pIC50: 5.05
[19]
  inhibition: 99%

## O=C1C[C@@H](c2ccc(O)cc2O)Oc2cc(O)cc(O)c21
Tyrosinase [2]
  pIC50: 6.01

## COc1cc([N+](=O)[O-])ccc1/C=C/C(=N\O)c1ccccc1O
Tyrosinase [2]
  pIC50: 5.32

## Oc1ccc(O)cc1 [HYDROQUINONE]
Tyrosinase [10]
  pIC50: 2.36

## Oc1ccc(/N=N/c2ccccc2O)cc1
Tyrosinase [15]
  pIC50: 4.36

## O=C(O)/C=C/c1ccc(O)cc1 [COUMARIC ACID]
Tyrosinase [20]
  pIC50: 5.52

## Oc1cccc(/C=C/c2ccc(O)cc2O)c1
Tyrosinase [14]
  pIC50: 6.10

## COc1ccc(/C=N/c2ccccc2)cc1
Tyrosinase [1]
  pIC50: 3.67

## COc1ccc(/N=C/c2ccc(O)cc2O)cc1
Tyrosinase [15]
  pIC50: 4.29

## COc1ccc(/N=C/c2ccc(O)c(O)c2)cc1
Tyrosinase [15]
  pIC50: 4.21

## O=C1/C(=C/c2ccc(O)cc2)Oc2cc(O)cc(O)c21
Tyrosinase [6]
  pIC50: 4.41

## CN(C)c1ccc(/C=C/C(=N\O)c2ccccc2O)cc1
Tyrosinase [2]
  pIC50: 5.10
